Test results reported in the supplement of paper PMC6315032.

Columns and labels:
Assay in all cases: apparent dissociation constant (pKDapp, Kinobeads competition, Cheng-Prusoff corrected) (-log10 M); higher = tighter binding
ABL2 = ABL2 (UniProt P42684); conditions: affinity matrix / lysate: Kinobeads, mixed HEK293/K-562/placenta lysate
ACVR2A = ACVR2A (UniProt P27037); conditions: affinity matrix / lysate: Kinobeads, mixed HEK293/K-562/placenta lysate
ACVR2B = ACVR2B (UniProt Q13705); conditions: affinity matrix / lysate: Kinobeads, mixed HEK293/K-562/placenta lysate
BMPR1B = BMPR1B (UniProt O00238); conditions: affinity matrix / lysate: Kinobeads, mixed HEK293/K-562/placenta lysate
CAMK2G = CAMK2G (UniProt Q13555); conditions: affinity matrix / lysate: Kinobeads, mixed HEK293/K-562/placenta lysate
CDC42BPG = CDC42BPG (UniProt Q6DT37); conditions: affinity matrix / lysate: Kinobeads, mixed HEK293/K-562/placenta lysate
CSNK1A1 = CSNK1A1 (UniProt P48729); conditions: affinity matrix / lysate: Kinobeads, mixed HEK293/K-562/placenta lysate
Sequence of CSNK1A1 (P48729 whole entry, looked up): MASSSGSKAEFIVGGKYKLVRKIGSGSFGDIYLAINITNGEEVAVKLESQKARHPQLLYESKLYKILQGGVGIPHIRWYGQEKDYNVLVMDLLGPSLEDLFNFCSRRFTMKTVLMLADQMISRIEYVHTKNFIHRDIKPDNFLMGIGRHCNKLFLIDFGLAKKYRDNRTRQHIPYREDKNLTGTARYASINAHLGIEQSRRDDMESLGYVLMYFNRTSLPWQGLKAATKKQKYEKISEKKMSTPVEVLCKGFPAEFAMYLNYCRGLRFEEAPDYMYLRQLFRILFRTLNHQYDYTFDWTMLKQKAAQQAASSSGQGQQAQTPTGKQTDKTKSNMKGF

EPHA5 = EPHA5 (UniProt P54756); conditions: affinity matrix / lysate: Kinobeads, mixed HEK293/K-562/placenta lysate
EPHB6 = EPHB6 (UniProt O15197); conditions: affinity matrix / lysate: Kinobeads, mixed HEK293/K-562/placenta lysate
FER = FER (UniProt P16591); conditions: affinity matrix / lysate: Kinobeads, mixed HEK293/K-562/placenta lysate
Sequence of FER (P16591 whole entry, looked up): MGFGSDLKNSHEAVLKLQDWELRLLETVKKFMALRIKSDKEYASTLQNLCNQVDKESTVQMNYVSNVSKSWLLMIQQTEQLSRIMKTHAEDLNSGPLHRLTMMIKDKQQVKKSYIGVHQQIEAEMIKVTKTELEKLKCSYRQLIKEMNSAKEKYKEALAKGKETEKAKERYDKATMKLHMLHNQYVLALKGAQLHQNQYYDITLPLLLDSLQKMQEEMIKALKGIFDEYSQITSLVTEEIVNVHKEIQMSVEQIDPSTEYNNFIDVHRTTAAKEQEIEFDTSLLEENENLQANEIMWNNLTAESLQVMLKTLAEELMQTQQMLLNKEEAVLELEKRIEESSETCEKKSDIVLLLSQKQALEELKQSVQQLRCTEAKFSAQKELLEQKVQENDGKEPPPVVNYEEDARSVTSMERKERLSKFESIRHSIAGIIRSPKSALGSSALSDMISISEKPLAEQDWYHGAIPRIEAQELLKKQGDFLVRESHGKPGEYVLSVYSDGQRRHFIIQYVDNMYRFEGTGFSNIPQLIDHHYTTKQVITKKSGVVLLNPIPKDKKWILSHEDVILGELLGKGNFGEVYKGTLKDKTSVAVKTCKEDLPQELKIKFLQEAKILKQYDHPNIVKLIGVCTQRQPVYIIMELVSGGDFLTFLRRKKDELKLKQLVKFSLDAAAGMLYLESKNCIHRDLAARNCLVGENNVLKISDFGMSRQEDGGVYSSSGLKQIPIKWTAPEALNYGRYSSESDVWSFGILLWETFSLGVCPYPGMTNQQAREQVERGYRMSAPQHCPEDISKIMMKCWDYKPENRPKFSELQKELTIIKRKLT

IGF1R = IGF1R (UniProt P08069); conditions: affinity matrix / lysate: Kinobeads, mixed HEK293/K-562/placenta lysate
Sequence of IGF1R (P08069 whole entry, looked up): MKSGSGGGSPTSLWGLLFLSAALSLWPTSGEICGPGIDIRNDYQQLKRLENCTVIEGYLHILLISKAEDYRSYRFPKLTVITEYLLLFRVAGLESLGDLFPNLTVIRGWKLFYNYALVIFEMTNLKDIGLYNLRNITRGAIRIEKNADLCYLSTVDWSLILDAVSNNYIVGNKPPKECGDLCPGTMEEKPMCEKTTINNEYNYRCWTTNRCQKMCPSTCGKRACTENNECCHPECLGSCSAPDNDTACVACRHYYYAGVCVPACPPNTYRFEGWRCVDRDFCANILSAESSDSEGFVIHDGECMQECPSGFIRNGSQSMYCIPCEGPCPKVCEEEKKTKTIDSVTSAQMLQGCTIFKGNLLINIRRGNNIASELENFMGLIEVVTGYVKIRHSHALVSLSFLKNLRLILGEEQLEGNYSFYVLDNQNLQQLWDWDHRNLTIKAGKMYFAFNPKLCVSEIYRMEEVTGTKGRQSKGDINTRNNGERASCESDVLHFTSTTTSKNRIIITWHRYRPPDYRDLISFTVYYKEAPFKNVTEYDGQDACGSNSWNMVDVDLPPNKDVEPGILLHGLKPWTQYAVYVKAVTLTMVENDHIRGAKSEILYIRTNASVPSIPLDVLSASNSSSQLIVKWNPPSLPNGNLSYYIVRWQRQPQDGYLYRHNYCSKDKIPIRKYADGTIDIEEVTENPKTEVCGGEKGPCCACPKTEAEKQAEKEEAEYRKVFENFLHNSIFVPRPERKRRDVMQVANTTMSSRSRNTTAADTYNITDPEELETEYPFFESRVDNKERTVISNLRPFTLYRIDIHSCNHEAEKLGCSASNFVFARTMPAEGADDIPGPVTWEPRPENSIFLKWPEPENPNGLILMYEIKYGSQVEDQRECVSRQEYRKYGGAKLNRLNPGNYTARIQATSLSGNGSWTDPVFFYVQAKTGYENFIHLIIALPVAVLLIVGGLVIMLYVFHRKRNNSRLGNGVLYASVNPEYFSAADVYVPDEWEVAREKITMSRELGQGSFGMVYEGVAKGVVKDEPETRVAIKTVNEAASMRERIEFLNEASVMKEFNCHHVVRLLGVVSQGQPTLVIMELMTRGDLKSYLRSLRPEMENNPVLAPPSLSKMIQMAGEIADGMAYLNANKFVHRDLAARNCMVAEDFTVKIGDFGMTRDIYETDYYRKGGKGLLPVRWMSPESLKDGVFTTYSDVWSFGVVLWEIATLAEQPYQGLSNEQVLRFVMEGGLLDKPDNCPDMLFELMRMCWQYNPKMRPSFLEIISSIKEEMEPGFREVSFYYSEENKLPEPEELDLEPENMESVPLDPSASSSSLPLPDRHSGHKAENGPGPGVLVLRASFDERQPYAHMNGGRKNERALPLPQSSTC

ILK = ILK (UniProt Q13418); conditions: affinity matrix / lysate: Kinobeads, mixed HEK293/K-562/placenta lysate
Sequence of ILK (Q13418 whole entry): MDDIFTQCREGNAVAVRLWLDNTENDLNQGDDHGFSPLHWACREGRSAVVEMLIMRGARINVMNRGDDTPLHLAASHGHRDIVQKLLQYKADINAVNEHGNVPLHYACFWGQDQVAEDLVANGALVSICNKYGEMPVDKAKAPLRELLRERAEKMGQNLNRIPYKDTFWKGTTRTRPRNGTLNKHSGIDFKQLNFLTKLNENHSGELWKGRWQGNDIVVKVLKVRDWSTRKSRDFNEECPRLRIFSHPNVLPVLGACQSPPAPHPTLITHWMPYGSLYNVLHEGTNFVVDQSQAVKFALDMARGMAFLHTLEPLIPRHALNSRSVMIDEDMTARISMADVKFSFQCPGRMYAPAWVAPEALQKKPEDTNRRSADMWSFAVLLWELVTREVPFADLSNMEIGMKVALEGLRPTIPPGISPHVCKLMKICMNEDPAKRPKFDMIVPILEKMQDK

MAP3K2 = MAP3K2 (UniProt Q9Y2U5); conditions: affinity matrix / lysate: Kinobeads, mixed HEK293/K-562/placenta lysate
MAP4K3 = MAP4K3 (UniProt Q8IVH8); conditions: affinity matrix / lysate: Kinobeads, mixed HEK293/K-562/placenta lysate
NUAK1 = NUAK1 (UniProt O60285); conditions: affinity matrix / lysate: Kinobeads, mixed HEK293/K-562/placenta lysate
PCTK1 = PCTK1 (UniProt Q00536); conditions: affinity matrix / lysate: Kinobeads, mixed HEK293/K-562/placenta lysate
PIK3CD = target: T1, PIK3CD (UniProt O00329)
T1 sequence (whole entry): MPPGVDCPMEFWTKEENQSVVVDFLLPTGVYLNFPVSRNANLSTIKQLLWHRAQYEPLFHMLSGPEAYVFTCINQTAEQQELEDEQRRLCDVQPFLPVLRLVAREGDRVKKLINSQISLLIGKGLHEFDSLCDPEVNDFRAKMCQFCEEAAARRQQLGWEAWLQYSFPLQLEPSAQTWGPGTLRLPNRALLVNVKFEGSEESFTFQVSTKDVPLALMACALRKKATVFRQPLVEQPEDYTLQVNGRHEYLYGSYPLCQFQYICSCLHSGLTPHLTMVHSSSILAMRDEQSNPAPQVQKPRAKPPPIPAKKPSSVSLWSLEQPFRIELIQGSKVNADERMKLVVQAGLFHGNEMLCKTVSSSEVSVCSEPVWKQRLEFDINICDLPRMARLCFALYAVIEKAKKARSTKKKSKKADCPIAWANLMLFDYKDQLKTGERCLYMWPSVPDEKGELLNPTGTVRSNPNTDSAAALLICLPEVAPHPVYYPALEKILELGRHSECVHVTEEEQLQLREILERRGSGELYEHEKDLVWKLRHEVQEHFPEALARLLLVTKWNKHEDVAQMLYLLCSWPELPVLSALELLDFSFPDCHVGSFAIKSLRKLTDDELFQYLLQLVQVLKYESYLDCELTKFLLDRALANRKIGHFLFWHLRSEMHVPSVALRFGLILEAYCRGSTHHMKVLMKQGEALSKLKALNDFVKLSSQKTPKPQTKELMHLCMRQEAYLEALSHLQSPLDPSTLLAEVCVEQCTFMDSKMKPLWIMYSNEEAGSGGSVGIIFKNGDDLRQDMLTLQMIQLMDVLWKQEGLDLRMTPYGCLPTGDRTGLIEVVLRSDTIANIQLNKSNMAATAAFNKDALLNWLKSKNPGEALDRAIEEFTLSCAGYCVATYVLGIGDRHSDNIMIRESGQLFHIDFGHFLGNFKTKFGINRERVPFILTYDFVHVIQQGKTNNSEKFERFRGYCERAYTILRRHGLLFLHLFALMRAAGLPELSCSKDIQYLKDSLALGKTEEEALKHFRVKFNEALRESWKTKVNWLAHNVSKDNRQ

PRKG1 = PRKG1 (UniProt Q13976); conditions: affinity matrix / lysate: Kinobeads, mixed HEK293/K-562/placenta lysate
PRKX = PRKX (UniProt P51817); conditions: affinity matrix / lysate: Kinobeads, mixed HEK293/K-562/placenta lysate
Sequence of PRKX (P51817 whole entry): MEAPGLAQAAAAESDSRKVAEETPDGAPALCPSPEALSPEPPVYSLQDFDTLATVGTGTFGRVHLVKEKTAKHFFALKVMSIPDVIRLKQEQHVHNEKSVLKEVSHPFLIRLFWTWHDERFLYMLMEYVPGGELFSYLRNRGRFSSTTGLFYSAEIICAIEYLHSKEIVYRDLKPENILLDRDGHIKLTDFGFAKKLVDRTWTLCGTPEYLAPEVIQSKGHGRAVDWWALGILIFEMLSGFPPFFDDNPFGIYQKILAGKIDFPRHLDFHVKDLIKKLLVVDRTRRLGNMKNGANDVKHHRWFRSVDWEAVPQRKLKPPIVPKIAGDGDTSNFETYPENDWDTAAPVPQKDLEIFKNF

PTK2 = PTK2 (UniProt Q05397); conditions: affinity matrix / lysate: Kinobeads, mixed HEK293/K-562/placenta lysate
SLK = SLK (UniProt Q9H2G2); conditions: affinity matrix / lysate: Kinobeads, mixed HEK293/K-562/placenta lysate
Sequence of SLK (Q9H2G2 whole entry, looked up): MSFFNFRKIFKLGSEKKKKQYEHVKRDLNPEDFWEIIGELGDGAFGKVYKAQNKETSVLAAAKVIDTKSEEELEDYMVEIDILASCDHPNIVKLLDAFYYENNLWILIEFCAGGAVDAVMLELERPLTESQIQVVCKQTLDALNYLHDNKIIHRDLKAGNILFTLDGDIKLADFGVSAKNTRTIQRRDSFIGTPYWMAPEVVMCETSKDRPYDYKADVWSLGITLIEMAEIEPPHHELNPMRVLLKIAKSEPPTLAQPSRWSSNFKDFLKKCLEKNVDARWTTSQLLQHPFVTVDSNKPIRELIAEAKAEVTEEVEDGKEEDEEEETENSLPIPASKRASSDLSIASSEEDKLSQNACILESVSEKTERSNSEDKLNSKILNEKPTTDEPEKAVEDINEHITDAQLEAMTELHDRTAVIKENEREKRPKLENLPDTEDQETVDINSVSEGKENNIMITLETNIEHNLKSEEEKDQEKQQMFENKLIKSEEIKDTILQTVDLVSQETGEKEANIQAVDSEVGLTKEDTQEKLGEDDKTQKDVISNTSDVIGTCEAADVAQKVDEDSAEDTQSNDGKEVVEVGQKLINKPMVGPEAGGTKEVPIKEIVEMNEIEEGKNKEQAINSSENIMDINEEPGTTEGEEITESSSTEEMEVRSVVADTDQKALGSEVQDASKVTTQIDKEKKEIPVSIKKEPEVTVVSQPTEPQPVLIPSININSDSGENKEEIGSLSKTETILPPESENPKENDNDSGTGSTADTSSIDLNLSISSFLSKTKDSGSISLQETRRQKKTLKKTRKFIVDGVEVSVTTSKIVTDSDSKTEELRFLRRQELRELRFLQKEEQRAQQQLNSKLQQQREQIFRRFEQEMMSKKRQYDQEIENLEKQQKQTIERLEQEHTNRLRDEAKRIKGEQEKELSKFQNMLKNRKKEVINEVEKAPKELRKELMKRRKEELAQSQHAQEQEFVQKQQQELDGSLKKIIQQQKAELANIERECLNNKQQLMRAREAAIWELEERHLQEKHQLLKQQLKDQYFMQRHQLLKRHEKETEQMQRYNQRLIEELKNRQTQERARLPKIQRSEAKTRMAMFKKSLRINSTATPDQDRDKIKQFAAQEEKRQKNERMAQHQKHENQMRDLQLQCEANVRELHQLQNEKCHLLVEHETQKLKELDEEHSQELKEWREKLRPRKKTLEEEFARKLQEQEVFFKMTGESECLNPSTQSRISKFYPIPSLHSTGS

TGFBR1 = TGFBR1 (UniProt P36897); conditions: affinity matrix / lysate: Kinobeads, mixed HEK293/K-562/placenta lysate
Sequence of TGFBR1 (P36897 whole entry): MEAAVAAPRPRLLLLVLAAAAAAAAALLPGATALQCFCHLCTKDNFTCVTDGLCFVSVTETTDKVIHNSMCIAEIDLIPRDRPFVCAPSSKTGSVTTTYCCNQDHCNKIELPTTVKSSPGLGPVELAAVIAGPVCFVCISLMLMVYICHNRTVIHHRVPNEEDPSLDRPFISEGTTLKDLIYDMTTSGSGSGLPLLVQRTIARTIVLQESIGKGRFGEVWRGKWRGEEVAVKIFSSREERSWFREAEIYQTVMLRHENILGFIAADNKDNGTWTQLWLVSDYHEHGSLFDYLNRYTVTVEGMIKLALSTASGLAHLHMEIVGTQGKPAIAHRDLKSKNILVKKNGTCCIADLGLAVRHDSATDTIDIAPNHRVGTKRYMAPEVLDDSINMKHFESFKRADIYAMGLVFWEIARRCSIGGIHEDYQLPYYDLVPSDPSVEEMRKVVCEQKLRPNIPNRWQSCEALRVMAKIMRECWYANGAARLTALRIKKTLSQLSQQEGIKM

TNK2 = TNK2 (UniProt Q07912); conditions: affinity matrix / lysate: Kinobeads, mixed HEK293/K-562/placenta lysate
[1] = affinity matrix / lysate: Lipid Kinobeads, mixed HeLa/Jurkat/K-562 lysate

| apparent dissociation constant (-log10 M) (ABL2) | apparent dissociation constant (-log10 M) (ACVR2A) | apparent dissociation constant (-log10 M) (ACVR2B) | apparent dissociation constant (-log10 M) (BMPR1B) | apparent dissociation constant (-log10 M) (CAMK2G) | apparent dissociation constant (-log10 M) (CDC42BPG) | apparent dissociation constant (-log10 M) (CSNK1A1) | apparent dissociation constant (-log10 M) (EPHA5) | apparent dissociation constant (-log10 M) (EPHB6) | apparent dissociation constant (-log10 M) (FER) | apparent dissociation constant (-log10 M) (IGF1R) | apparent dissociation constant (-log10 M) (ILK) | apparent dissociation constant (-log10 M) (MAP3K2) | apparent dissociation constant (-log10 M) (MAP4K3) | apparent dissociation constant (-log10 M) (NUAK1) | apparent dissociation constant (-log10 M) (PCTK1) | apparent dissociation constant (-log10 M) (PIK3CD; affinity matrix / lysate: Kinobeads, mixed HEK293/K-562/placenta lysate) | apparent dissociation constant (-log10 M) (PIK3CD; [1]) | apparent dissociation constant (-log10 M) (PRKG1) | apparent dissociation constant (-log10 M) (PRKX) | apparent dissociation constant (-log10 M) (PTK2) | apparent dissociation constant (-log10 M) (SLK) | apparent dissociation constant (-log10 M) (TGFBR1) | apparent dissociation constant (-log10 M) (TNK2) | Structure (SMILES) |
| --- | --- | --- | --- | --- | --- | --- | --- | --- | --- | --- | --- | --- | --- | --- | --- | --- | --- | --- | --- | --- | --- | --- | --- | --- |
| < 6 | < 6 | < 6 | < 6 | < 6 | < 6 | < 6 | < 6 | < 6 | < 6 | < 6 | < 6 | < 6 | < 6 | < 6 | < 6 | < 6 | < 6 | < 6 | < 6 | < 6 | < 6 | < 6 | < 6 | CCNC(=O)Nc1ccc(-c2nc(N3CCOC[C@@H]3C)c3c(n2)C(C)(C)S(=O)(=O)C3)cc1 [CZ415] |
| < 6 | < 6 | < 6 | < 6 | < 6 | < 6 | < 6 | < 6 | < 6 | < 6 | < 6 | < 6 | < 6 | < 6 | < 6 | < 6 |  | 6.57 | < 6 | < 6 | < 6 | < 6 | < 6 | < 6 | COc1ccc(-c2ccc3c(N4CCOC[C@@H]4C)nc(N4CCOC[C@@H]4C)nc3n2)cc1CO [AZD8055] |
